{"source": "patent US20250073339A1", "about": "“CONJUGATES COMPRISING CLEAVABLE LINKERS” (priority 2023, published 2025)", "assay_type_in_all_cases": "biochemical", "key": {"[1]": {"biological_target": "T1, β-glucuronidase (Homo sapiens, UniProt P08236)", "T1 sequence (P08236 23-651)": "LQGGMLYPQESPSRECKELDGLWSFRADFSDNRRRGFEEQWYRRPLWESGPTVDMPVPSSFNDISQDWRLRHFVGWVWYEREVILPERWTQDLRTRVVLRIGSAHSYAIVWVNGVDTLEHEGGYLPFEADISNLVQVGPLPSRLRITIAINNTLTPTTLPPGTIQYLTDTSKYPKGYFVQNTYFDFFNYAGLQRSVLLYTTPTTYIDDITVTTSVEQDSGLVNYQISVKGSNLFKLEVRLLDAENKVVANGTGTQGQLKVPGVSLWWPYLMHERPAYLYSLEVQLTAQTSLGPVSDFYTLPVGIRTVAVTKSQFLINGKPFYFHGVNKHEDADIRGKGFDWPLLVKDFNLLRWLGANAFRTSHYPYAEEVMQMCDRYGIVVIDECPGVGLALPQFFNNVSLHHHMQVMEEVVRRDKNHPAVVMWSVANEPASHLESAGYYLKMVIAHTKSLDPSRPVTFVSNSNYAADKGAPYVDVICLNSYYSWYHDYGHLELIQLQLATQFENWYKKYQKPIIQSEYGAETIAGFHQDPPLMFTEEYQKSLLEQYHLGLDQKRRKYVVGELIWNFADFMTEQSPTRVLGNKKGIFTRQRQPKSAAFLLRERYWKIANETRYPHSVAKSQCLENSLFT", "assay": "Linker-Payload enzymatic cleavage with β-glucuronidase", "conditions": "4 nM enzyme, 40 μM Linker-Payload, pH 5.0, 37° C., 24 hours; for cleavage in the presence of β-glucuronidase: FIG. 1A", "procedure": "(§1) 4 nM β-glucuronidase was added to 40 μM Linker-Payload (1:10,000) in 50 mM sodium acetate, pH 5.0. The mixture was incubated at 37° C. for a duration of 24 hours with intermediate timepoints collected and diluted 1:1 with buffer containing acetonitrile, water and formic acid. The sample was measured by reverse-phase HPLC with data quantified against a standard curve."}, "[2]": {"biological_target": "Cathepsin B (Homo sapiens, UniProt P07858)", "assay": "Linker-Payload enzymatic cleavage with cathepsin B", "conditions": "FIG. 1B; 0.14 μM enzyme, 70 μM Linker-Payload, pH 5.0, 37° C., 24 hours", "procedure": "as §1, with “0.14 μM Cathepsin B” for “4 nM β-glucuronidase”, “70” for “40”, “(1:500)” for “(1:10,000)”, “acetate, 1 mM DTT,” for “acetate,”"}, "[3]": {"biological_target": "T2, Human neutrophil elastase (Homo sapiens, UniProt P08246)", "T2 sequence (P08246 30-267)": "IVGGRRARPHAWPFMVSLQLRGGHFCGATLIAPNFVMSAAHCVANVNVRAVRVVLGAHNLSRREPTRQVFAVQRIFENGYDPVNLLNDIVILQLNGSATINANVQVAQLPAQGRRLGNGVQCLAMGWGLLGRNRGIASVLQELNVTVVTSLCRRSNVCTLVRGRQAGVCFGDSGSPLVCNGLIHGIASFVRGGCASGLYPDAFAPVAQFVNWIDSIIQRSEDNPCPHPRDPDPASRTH", "assay": "Linker-Payload enzymatic cleavage with human neutrophil elastase", "conditions": "0.67 μM enzyme, 67 μM Linker-Payload, pH 7.4, 37° C., 24 hours", "procedure": "as §1, with “0.67 μM Human neutrophil elastase” for “4 nM β-glucuronidase”, “67” for “40”, “(1:100)” for “(1:10,000)”, “Tris Buffered Saline,” for “50 mM sodium acetate,”, “7.4.” for “5.0.”"}}, "note": "Numbered stars: 1 amine (or outer) side, 2 acyl side, 3 side chain; on linkers, the order of the positions; unused ones are H or OH. Square brackets hold non-standard residues; d marks the D form. Peptide text beside a SMILES is read from it. * marks the point of attachment. X1 = O=C(O)[C@H]1O[C@@H](Oc2ccc(COC(=O)[*:2])cc2N[*:1])[C@H](O)[C@@H](O)[C@@H]1O; CH3O(CH2CH2O)11CH2CH2CO = COCCOCCOCCOCCOCCOCCOCCOCCOCCOCCOCCOCCC(=O)*; Dolaproine = CO[C@@H]([C@@H]1CCCN1)[C@@H](C)C(=O)O; Hexanoyl(6-maleimido) = O=C1C=CC(=O)N1CCCCCC(=O)*; Propanoyl(3-maleimido) = O=C1C=CC(=O)N1CCC(=O)*; Dil = CC[C@H](C)[C@H](NC)[C@@H](CC(=O)O)OC; PABC = O=C(OCc1ccc(N[*:1])cc1)[*:2]; X2 = C[C@@H](N*)[C@@H](O)c1ccccc1; Cit = NC(=O)NCCC[C@H](N)C(=O)O; NMeV = CN[C@H](C(=O)O)C(C)C; βAla = NCCC(=O)O", "data": [{"compound": "CC[C@H](C)[C@@H]([C@@H](CC(=O)N1CCC[C@H]1[C@H](OC)[C@@H](C)C(=O)N[C@H](C)[C@@H](O)c1ccccc1)OC)N(C)C(=O)[C@@H](NC(=O)[C@H](C(C)C)N(C)C(=O)OCc1ccc(O[C@@H]2O[C@H](C(=O)O)[C@@H](O)[C@H](O)[C@H]2O)c(CNC(=O)COC2(CNC(=O)CCN3C(=O)C=CC3=O)CN(C(=O)CCOCCOCCOCCOCCOCCOCCOCCOCCOCCOCCOCCOC)C2)c1)C(C)C", "note": "[LP3]", "values": [{"measurement": "cleavage in the presence of β-glucuronidase", "setting": "[1]", "result": "underwent significant cleavage"}, {"measurement": "cleavage in the presence of cathepsin B", "setting": "[2]", "result": "neither LP2 nor LP3 underwent rapid cleavage"}, {"measurement": "cleavage in the presence of human neutrophil elastase", "setting": "[3]; FIG. 1C", "result": "did not undergo rapid cleavage"}]}, {"compound": "CC[C@H](C)[C@@H]([C@@H](CC(=O)N1CCC[C@H]1[C@H](OC)[C@@H](C)C(=O)N[C@H](C)[C@@H](O)c1ccccc1)OC)N(C)C(=O)[C@@H](NC(=O)[C@H](C(C)C)N(C)C(=O)OCc1ccc(O[C@@H]2O[C@H](C(=O)O)[C@@H](O)[C@H](O)[C@H]2O)c(NC(=O)CCNC(=O)[C@H](CCCCNC(=O)CCOCCOCCOCCOCCOCCOCCOCCOCCOCCOCCOCCOC)NC(=O)CCN2C(=O)C=CC2=O)c1)C(C)C", "note": "[LP8, reference compound] ({Propanoyl(3-maleimido)}-K(CH3O(CH2CH2O)11CH2CH2CO)[βAla][X1][NMeV]V[Dil][Dolaproine]-X2)", "values": [{"measurement": "cleavage in the presence of human neutrophil elastase", "setting": "[3]; FIG. 1D", "result": "did not undergo rapid cleavage"}]}, {"compound": "CC[C@H](C)[C@@H]([C@@H](CC(=O)N1CCC[C@H]1[C@H](OC)[C@@H](C)C(=O)N[C@H](C)[C@@H](O)c1ccccc1)OC)N(C)C(=O)[C@@H](NC(=O)[C@H](C(C)C)N(C)C(=O)OCc1ccc(O[C@@H]2O[C@H](C(=O)O)[C@@H](O)[C@H](O)[C@H]2O)c(CNC(=O)CCNC(=O)COC2(CNC(=O)CCN3C(=O)C=CC3=O)CN(C(=O)CCOCCOCCOCCOCCOCCOCCOCCOCCOCCOCCOCCOC)C2)c1)C(C)C", "note": "[LP2]", "values": [{"measurement": "cleavage in the presence of β-glucuronidase", "setting": "[1]", "result": "underwent significant cleavage"}, {"measurement": "cleavage in the presence of β-glucuronidase relative to references", "setting": "[1]; FIG. 1E", "result": "underwent slower cleavage than both LP7 (Reference) and LP8 (Reference)"}, {"measurement": "cleavage in the presence of cathepsin B", "setting": "[2]", "result": "neither LP2 nor LP3 underwent rapid cleavage"}, {"measurement": "cleavage in the presence of human neutrophil elastase", "setting": "[3]; FIG. 1C", "result": "did not undergo rapid cleavage"}, {"measurement": "cleavage in the presence of human neutrophil elastase", "setting": "[3]; FIG. 1D", "result": "did not undergo rapid cleavage"}]}, {"compound": "CC[C@H](C)[C@@H]([C@@H](CC(=O)N1CCC[C@H]1[C@H](OC)[C@@H](C)C(=O)N[C@H](C)[C@@H](O)c1ccccc1)OC)N(C)C(=O)[C@@H](NC(=O)[C@H](C(C)C)N(C)C(=O)OCc1ccc(O[C@@H]2O[C@H](C(=O)O)[C@@H](O)[C@H](O)[C@H]2O)c(CNC(=O)CCNC(=O)[C@H](CCCCNC(=O)CCOCCOCCOCCOCCOCCOCCOCCOCCOCCOCCOCCOC)NC(=O)CCN2C(=O)C=CC2=O)c1)C(C)C", "note": "[LP7, reference compound]", "values": [{"measurement": "cleavage in the presence of human neutrophil elastase", "setting": "[3]; FIG. 1D", "result": "did not undergo rapid cleavage"}]}, {"compound": "CC[C@H](C)[C@@H]([C@@H](CC(=O)N1CCC[C@H]1[C@H](OC)[C@@H](C)C(=O)N[C@H](C)[C@@H](O)c1ccccc1)OC)N(C)C(=O)[C@@H](NC(=O)[C@H](C(C)C)N(C)C(=O)OCc1ccc(NC(=O)[C@H](CCCNC(N)=O)NC(=O)[C@@H](NC(=O)CCCCCN2C(=O)C=CC2=O)C(C)C)cc1)C(C)C", "note": "[LP1, maleimidocaproyl-valine-citrulline-p-aminobenzoyloxycarbonyl-MMAE, reference compound] ({Hexanoyl(6-maleimido)}-V[Cit][PABC][NMeV]V[Dil][Dolaproine]-X2)", "values": [{"measurement": "cleavage in the presence of human neutrophil elastase", "setting": "[3]; FIG. 1C", "result": "underwent more rapid cleavage"}]}]}
